Assays:
[1] = system: Monocotyledonous and dicotyledonous test plants; assay: Herbicidal action before emergence of the plants (pre-emergence action); type: in vivo; conditions: 2000 g/ha, evaluated after 3 weeks, nine-step scale
Method in brief: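 Sprayed onto soil immediately after sowing as WP suspension or EC emulsion at 2 kg or 250 g a.i./ha (500 l water/ha). Greenhouse growth for 3 weeks, then scored on a nine-step scale (1 = complete damage, 9 = no effect).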

[2] = system: Monocotyledonous and dicotyledonous test plants; assay: Post-emergence herbicidal action; type: in vivo; conditions: 2000 g/ha, sprayed in 4- to 6-leaf stage, evaluated after approximately 18 days, nine-step scale
Method in brief: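 Scoring uses a 1–9 scale (1 complete damage, 9 no effect), read roughly 18 days post-application. Compounds were applied post-emergence at 4–6 leaves, as aqueous suspension (25% wettable powder) or emulsion (25% emulsion concentrate), at 250 g or 2 kg a.i./ha in 500 l water/ha.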

| SMILES | pre-emergence action, Cyperus [1] | pre-emergence action, Ipomoea [1] | pre-emergence action, Setaria [1] | pre-emergence action, Sinapis [1] | pre-emergence action, Solanum [1] | pre-emergence action, Stellaria [1] | Post-emergence action, Ipomoea [2] | Post-emergence action, Lolium [2] | Post-emergence action, Setaria [2] | Post-emergence action, Sinapis [2] | Post-emergence action, Solanum [2] | Post-emergence action, Stellaria [2] | melting point [°C] |
| --- | --- | --- | --- | --- | --- | --- | --- | --- | --- | --- | --- | --- | --- |
| Cc1nc(C(F)(F)F)ccc1C(=O)C1=C(O)CCCC1=O [Compound A2-B1, 3-hydroxy-2-(2-methyl-6-trifluoromethylpyridine-3-carbonyl)cyclohex-2-enone] | 2 | 2 | 1 | 2 | 2 | 1 | 1 | 2 | 1 | 1 | 1 | 2 | 90 to 92 |
| Cc1nc(C(F)(F)F)ccc1C(=O)C1=C(O)C(C)(C)CCC1=O [Compound A2-B24, 3-Hydroxy-4,4-dimethyl-2-(2-methyl-6-trifluoromethylpyridine-3-carbonyl)cyclohex-2-enone] | 1 | 1 | 1 | 2 | 1 | 1 | 1 | 2 | 2 | 1 | 2 | 2 | 75 to 76 |
| Cc1nc(C(F)(F)F)ccc1C(=O)C1=C(O)C(C)(C)C(=O)C(C)(C)C1=O [Compound A2-B354, 5-hydroxy-2,2,6,6-tetramethyl-4-(2-methyl-6-trifluoromethylpyridine-3-carbonyl)cyclohex-4-ene-1,3-dione] | 1 | 1 | 1 | 1 | 1 | 2 | 2 | 2 | 2 | 2 | 2 | 2 | 139 to 140 |
